Measured values reported in patent publication EP2266984A1, “Pyrido[2,3-d]pyrimidines as Wnt antagonists for treatment of cancer and arthritis” (Deutsches Krebsforschungszentrum Stiftung des öffentlichen …, priority 2009, dated 2010).

Columns and labels:
Wnt signalling pathway = assay: Wnt-sensitive reporter gene assay (6xTCF-luciferase, pTOP-FLASH) in Hek293T cells; assay type: cell-based; conditions: for Normalized Wnt pathway inhibitory activity: 24 h; for IC50: Homo sapiens, HEK-293T, 6xTCF-luciferase, 5nM - 100 microM, 24 h incubation, read-out: IC50 of the Wnt pathway inhibitory activity
Protocol: To screen for small-molecule modulators of the Wnt signalling pathway, a reporter gene based assay describing the modulation of the TCF4 transcription factor was used. More specifically 4000 Hek293T cells were seeded into 384 high density plates. 24h after seeding a Wnt-sensitive reporter (6xTCF-luciferase (Firefly) (pTOP-FLASH; "Armadillo coactivates transcription driven by the product of the Drosophila segment polarity gene dTCF", Cell, 1997, 88(6), pages 789-99)) and constitutively expressed control reporter (Renilla luciferase pCMV-RL) were transfected into Hek293T. Wnt signaling was stimulated by cotransfecting mouse Wnt1, mouse Frizzled 8 and human LRP6 according to "Casein kinase 1 gamma couples Wnt receptor activation to cytoplasmic signal transduction", Nature, 2005, 438(7069), pages 867-872. 24 h after pathway stimulation compounds were added at a concentration of 10 microM and allowed to incubate for 24 h. For the evaluation of the IC50 the compound was applied in increasing concentrations yielding final concentrations per well of 5nM - 100 microM.

HS68 = assay: Cell line specific cytotoxicity, count of Hoechst labeled nuclei, HS68 fibroblasts; assay type: cell-based, human; conditions: for Normalized cell count (HS68): normal cells, at least 72 hr
Protocol: For examination of cell line-specific cytotoxicity, compounds were applied to human colorectal cancer cells (HCT116, denoted (1); SW480, denoted (2); Dld-1, denoted (3)) and human fibroblasts (HFF-1, denoted (4); HS-68, denoted (5)), cultured in Mc Coy's (1) and Dulbecco's Modified Eagles Medium ((2)-(5)), supplemented with 10% ((1)-(3)) and 20% ((4), (5)) fetal calf serum and 1% penicillin/streptomycin. Cells were grown in T75 flasks at 37 °C, 5% CO2 and trypsinized when 60-80% confluent by adding 2 ml of 0.25% Trypsin-EDTA solution. Cells were then re-suspended into culture medium yielding approx. 750 cells, suspended in 45 microl medium, were plated into each well of a black 384-well plate for fluorescence imaging experiments. […] Compound incubation was terminated by (a) fixation and (b) permeabilisation of cells, followed by (c) fluorescence labeling of cell nuclei for cytometric quantification or by immunocytochemistry for microscopic evaluation of cell morphology. The three steps were performed by replacing the solution of the previous step in each well of a 384-well plate by (a) 30 microl PBS (phosphate buffered saline) containing 5% PFA (paraformaldehyde), (b) 30 microl PBS containing 0.2% TritonX-100 and (c) 10 microl PBS containing Hoechst-33342 for cytometry or Hoechst-33342, FITC-(fluorescein isothiocyanate-)labeled alpha-tubulin antibodies and TRITC-(tetramethylrhodamine isothiocyanate-)labeled phalloidin for microscopy. Solutions were incubated for 15 (a,b) and 30 min (c) in the dark at room temperature. Cells were washed twice between each step with 30 microl PBS. The assay system was miniaturized and adapted to automated workflow using liquid-handling robotics.
Cell line-specific cytotoxicity was quantified by counting the number of Hoechst labeled nuclei per well of a 384-well plate using a plate cytometer. Data obtained with the cytometer was analysed using standard data analysis software.
Identified hits were further evaluated by visual inspection of fluorescence micrographs obtained from imaging using a conventional fluorescence microscope.

Hek293T = assay: CellTiterGlo cytotoxicity assay in Hek293T; assay type: cell-based; conditions: 24h after compound addition
Protocol: For examination of cytotoxicity in these cancer cell lines the commercial available CellTiterGlo® Reagent (Promega, USA) was used according to the manufactor.
Compounds were applied to Hek293T (denoted (1)) or HepG2 (denoted (2)), cultured in Dulbecco's Modified Eagles Medium, supplemented with 10% fetal calf serum and 1% penicillin/streptomycin. Cells were grown in T75 flasks at 37 °C, 5% CO2 and trypsinized when 60-80% confluent by adding 2 ml of 0.25% Trypsin-EDTA solution. Cells were then re-suspended into culture medium yielding approx. 4000 cells (1) or 4500 cells (2), suspended in 30 microl medium. 48h after cell seeding, compounds were added to yield the desired final concentrations. 24h after compound addition cytotoxicity was evaluated. For this purpose the media was removed and CellTiterGlo® was added according to the manufactors manual. In this assay the luciferase emission readout is directly correlated with the cellular amount of ATP, low luciferase emission thus is reflecting cytotoxicity of a compound. For the evaluation of the IC50 the compound was applied in increasing concentrations yielding final concentrations per well of 5nM - 100 microM.

Compound	Normalized Wnt pathway inhibitory activity (Wnt signalling pathway; 0.005 microM)	Normalized Wnt pathway inhibitory activity (Wnt signalling pathway; 0.137 microM)	Normalized Wnt pathway inhibitory activity (Wnt signalling pathway; 0.412 microM)	Normalized Wnt pathway inhibitory activity (Wnt signalling pathway; 1.235 microM)	Normalized Wnt pathway inhibitory activity (Wnt signalling pathway; 3.704 microM)	Normalized Wnt pathway inhibitory activity (Wnt signalling pathway; 11.111 microM)	Normalized Wnt pathway inhibitory activity (Wnt signalling pathway; 33.333 microM)	Normalized Wnt pathway inhibitory activity (Wnt signalling pathway; 100.000 microM)	IC50 (Wnt signalling pathway)	Normalized cell count (HS68) (HS68; 0.005 microM)	Normalized cell count (HS68) (HS68; 0.015 microM)	Normalized cell count (HS68) (HS68; 0.046 microM)	Normalized cell count (HS68) (HS68; 0.137 microM)	Normalized cell count (HS68) (HS68; 0.412 microM)	Normalized cell count (HS68) (HS68; 1.235 microM)	Normalized cell count (HS68) (HS68; 3.704 microM)	Normalized cell count (HS68) (HS68; 11.111 microM)	Normalized cell count (HS68) (HS68; 33.333 microM)	Normalized cell count (HS68) (HS68; 100.000 microM)	Normalized toxicity values (Hek293T) (Hek293T; 0.005 microM)	also measured
CCOC(=O)c1c(C)nc2c(c(N3CCN(Cc4ccccc4F)CC3)nc(=O)n2-c2ccccc2)c1-c1ccccc1 [Example 150]	0.8990	1.0310	0.8660	0.6448	0.3170	0.2795	0.1573	0.1708	1600 ± 600 nM	1	1.018	1.012	0.9701	0.9865	0.9917	1.106	1.081	1.034	0.6334	1.1200	Normalized Wnt pathway inhibitory activity (Wnt signalling pathway; 0.015 microM): 0.8480; Normalized Wnt pathway inhibitory activity (Wnt signalling pathway; 0.046 microM): 0.8763; Normalized toxicity values (Hek293T) (Hek293T; 0.015 microM): 1.0780; Normalized toxicity values (Hek293T) (Hek293T; 0.046 microM): 1.0735; Normalized toxicity values (Hek293T) (Hek293T; 0.137 microM): 1.0278; Normalized toxicity values (Hek293T) (Hek293T; 0.412 microM): 1.0553; Normalized toxicity values (Hek293T) (Hek293T; 1.235 microM): 0.9703; Normalized toxicity values (Hek293T) (Hek293T; 3.704 microM): 1.1975; Normalized toxicity values (Hek293T) (Hek293T; 11.111 microM): 1.2900; Normalized toxicity values (Hek293T) (Hek293T; 33.333 microM): 1.3025; Normalized toxicity values (Hek293T) (Hek293T; 100.000 microM): 1.5500
CCOC(=O)c1c(C)nc2c(c(N3CCN(C/C=C/c4ccccc4)CC3)nc(=O)n2-c2ccccc2)c1-c1ccccc1 [Example 153, 7-Methyl-2-oxo-1,5-diphenyl-4-[4-((E)-3-phenyl-allyl)-piperazin-1-yl]-1,2-dihydro-pyrido[2,3-d]pyrimidine-6-carboxylic acid ethyl ester]	0.8000	0.9813	0.8173	0.5333	0.2410	0.1023	0.0518	0.0132	1600 ± 900 nM	1	1.0005	0.9849	0.9755	0.9186	0.9639	0.9349	0.9432	0.826	0.2108	1.0725	Normalized Wnt pathway inhibitory activity (Wnt signalling pathway; 0.046 microM): 1.0868; Effect on normal cells (HS-68) (HS68; 10 microM, HS-68 cell line): not affected; Normalized toxicity values (Hek293T) (Hek293T; 0.015 microM): 1.0650; Normalized toxicity values (Hek293T) (Hek293T; 0.046 microM): 1.0425; Normalized toxicity values (Hek293T) (Hek293T; 0.137 microM): 0.9703; Normalized toxicity values (Hek293T) (Hek293T; 0.412 microM): 1.0800; Normalized toxicity values (Hek293T) (Hek293T; 1.235 microM): 1.0623; Normalized toxicity values (Hek293T) (Hek293T; 3.704 microM): 1.1125; Normalized toxicity values (Hek293T) (Hek293T; 11.111 microM): 1.1475; Normalized toxicity values (Hek293T) (Hek293T; 33.333 microM): 1.1375; Normalized toxicity values (Hek293T) (Hek293T; 100.000 microM): 0.0290
CCOC(=O)c1c(C)nc2c(c(N3CCN(C(c4ccc(F)cc4)c4ccc(F)cc4)CC3)nc(=O)n2-c2ccccc2)c1-c1ccccc1 [Example 157]	0.9895	0.6610	1.2550	0.6557	0.3888	0.3733	0.1933	0.1651	1900 ± 900 nM	1	1.092	1.081	1.128	1.062	1.132	1.18	1.167	1.2661	1.294	1.1275	Normalized Wnt pathway inhibitory activity (Wnt signalling pathway; 0.015 microM): 1.0328; Normalized toxicity values (Hek293T) (Hek293T; 0.015 microM): 1.0600; Normalized toxicity values (Hek293T) (Hek293T; 0.046 microM): 1.1075; Normalized toxicity values (Hek293T) (Hek293T; 0.137 microM): 1.0975; Normalized toxicity values (Hek293T) (Hek293T; 0.412 microM): 0.9535; Normalized toxicity values (Hek293T) (Hek293T; 1.235 microM): 0.9633; Normalized toxicity values (Hek293T) (Hek293T; 3.704 microM): 1.0078; Normalized toxicity values (Hek293T) (Hek293T; 11.111 microM): 1.1475; Normalized toxicity values (Hek293T) (Hek293T; 33.333 microM): 1.3825; Normalized toxicity values (Hek293T) (Hek293T; 100.000 microM): 1.5650
